Reference: patent US20230278972A1, “SUBSTITUTED HALOALKYL SULFONANILIDE HERBICIDES” (FMC Corporation, priority 2020, published 2023)

Columns and labels:
[1] = system: horseweed (Erigeron canadensis); test: Test A1 postemergence, horseweed; type: in vivo; conditions: for Plant response rating, Horseweed: Postemergence; for Horseweed plant response rating: postemergence
How it was run: (§1)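 Pre: seeds in loam/sand blend, directed soil spray. Post: potted plants, same soil, 2–10 cm, 1–2 leaf stage. Chemicals in non-phytotoxic solvent + surfactant for both.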

[2] = system: wheat (Triticum aestivum); test: Test A1 postemergence, wheat; type: in vivo; conditions: for Plant response rating, Wheat: Postemergence; for Wheat plant response rating: postemergence
How it was run: as §1

[3] = 31 g ai/ha, 0 to 100 scale (0 no effect, 100 complete control), 10 days
[4] = 31 g ai/ha, 0 to 100 scale (0 no effect, 100 complete control)

Structure (SMILES) | Plant response rating, Horseweed [1, 3] | Plant response rating, Horseweed ([1]; 125 g ai/ha, 0 to 100 scale) | Plant response rating, Wheat [2, 3] | Plant response rating, Wheat ([2]; 125 g ai/ha, 0 to 100 scale) | Horseweed plant response rating [1, 4] | Wheat plant response rating [2, 4]
Cc1c(C(=O)N2CCCCC2)cc(NS(=O)(=O)C(F)(F)F)c(Cl)c1F [Compound 333] | 0 | 30 | 0 | 30 |  | 
Cc1c(NS(=O)(=O)C(F)(F)F)cc(C2=NOC3CCCC23)c(C)c1C (centres unmarked) [Compound 335] | 40 | 70 | 0 | 0 |  | 
Cc1c(C2=NO[C@@H]3CCC[C@H]23)cc(N(COC(=O)C(C)(C)C)S(=O)(=O)C(F)(F)F)c(C)c1C [Compound 336, [[(Trifluoromethyl)sulfonyl][2,3,4-trimethyl-5-[(3aR,6aR)-3a,5,6,6a-tetrahydro-4H-cyclopent[d]isoxazol-3-yl]phenyl]amino]methyl 2,2-dimethylpropanoate] | 0 | 60 | 0 | 0 |  | 
CCOC1CC(c2cc(N(COC(=O)C(C)(C)C)S(=O)(=O)C(F)(F)F)c(C)cc2C)=NO1 (centres unmarked) [Compound 339] | 100 | 100 | 0 | 40 |  | 
Cc1cc(C)c(C2=NOC3OCCC23)cc1NS(=O)(=O)C(F)(F)F (centres unmarked) [Compound 349] | 90 | 100 | 30 | 70 |  | 
CCOC(=O)N(c1cc(C(=O)N2CCC(F)(F)CC2)c(C)cc1C)S(=O)(=O)C(F)(F)F [Compound 351] | 100 | 90 | 0 | 60 |  | 
Cc1cc(C)c(N(COC(=O)C(C)(C)C)S(=O)(=O)C(F)(F)F)cc1C1=NOC2OCCC12 (centres unmarked) [Compound 352] | 80 | 100 | 0 | 50 |  | 
Cc1cc(C)c(N(COC(=O)C(C)(C)C)S(=O)(=O)C(F)(F)F)cc1C(=O)N1CCC(C)CC1 [Compound 353] | 70 | 100 | 20 | 50 |  | 
CCOC(=O)N(c1cc(C(=O)N2CCC(C)CC2)c(C)cc1C)S(=O)(=O)C(F)(F)F [Compound 354] | 80 | 90 | 20 | 40 |  | 
Cc1cc(C2CC2)c(C2=NOC3CCCC23)cc1N(COC(=O)C(C)(C)C)S(=O)(=O)C(F)(F)F (centres unmarked) [Compound 355] | 70 | 70 | 20 | 50 |  | 
Cc1c(NS(=O)(=O)C(F)(F)F)cc(C(=O)N2CCC(F)CC2)c(C)c1C [Compound 358] | 60 | 70 | 0 | 0 |  | 
Cc1c(C(=O)N2CCC(Cl)CC2)cc(N(COC(=O)C(C)(C)C)S(=O)(=O)C(F)(F)F)c(C)c1C [Compound 359] | 50 | 80 | 0 | 30 |  | 
Cc1c(C(=O)N2CCC(F)CC2)cc(N(COC(=O)C(C)(C)C)S(=O)(=O)C(F)(F)F)c(C)c1C [Compound 361] | 70 | 90 | 0 | 20 |  | 
Cc1cc(C)c(N(COC(=O)C(C)(C)C)S(=O)(=O)C(F)(F)F)cc1C(=O)N1CCOCC1 [Compound 362] | 90 | 90 | 40 | 60 |  | 
Cc1cc(C)c(N(COC(=O)C(C)(C)C)S(=O)(=O)C(F)(F)F)cc1C(=O)N1CCC(c2ccccc2)CC1 [Compound 364] | 0 | 0 | 0 | 0 |  | 
CCOC(=O)N(c1cc(C(=O)N2CCC(c3ccccc3)CC2)c(C)cc1C)S(=O)(=O)C(F)(F)F [Compound 365] | 10 | 20 | 0 | 20 |  | 
Cc1cc(C)c(C2=NOC3OCCCC23)cc1NS(=O)(=O)C(F)(F)F (centres unmarked) [Compound 372] |  |  |  | 70 | 0 | 10
CCC1CC(c2cc(NS(=O)(=O)C(F)(F)F)c(C)cc2C)=NO1 (centres unmarked) [Compound 375] |  | 50 |  | 70 |  | 0
CCC1CC(c2cc(N(COC(=O)C(C)(C)C)S(=O)(=O)C(F)(F)F)c(C)cc2C)=NO1 (centres unmarked) [Compound 376] |  | 0 |  | 40 | 0 | 10
